Laboratory results taken from patent US8476265B2, “Compounds-801” (AstraZeneca AB, priority 2010, dated 2013).

Assays:
Adrenergic β2 [1] = biological target: T1, Adrenergic β2 (Homo sapiens, UniProt P07550); assay: Adrenergic β2 mediated cAMP production in H292 cells, single concentration 1 μM; assay type: cell-based; conditions: NCI-H292, 1 μM compound, cAMP as percentage of the maximum response generated by 1E-07M formoterol, read-out: β2 % effect @1 uM
T1 construct: Adherent H292 cells are removed from tissue culture flasks by treatment with Accutase™ cell detachment solution; endogenous in cells; host or cells: H292 cells
Method: The following experimental procedure was used to measure the beta-2% effect at 1 μM for the compounds of Examples 99-175. Adrenergic p2 Mediated cAMP Production Cell Preparation
H292 cells are grown in 225 cm2 flasks incubator at 37° C., 5% CO2 in RPMI medium containing 10% (v/v) FBS (foetal bovine serum) and 2 mM L-glutamine.
Compounds are prepared by an initial first dilution into DMSO to give 1 mM stock concentration. This is followed by a 1 in 10 dilution of the stock concentration (10 μl stock compound +90 μl DMSO) to give 0.1 mM compound. A compound addition plate is prepared by making a further 1 in 25 dilution in assay buffer (HBSS solution containing 10 mM HEPES pH7.4 and 5 mM glucose) containing 4% dimethylsulfoxide. The final compound concentration in assay is 1 μM.
Adherent H292 cells are removed from tissue culture flasks by treatment with Accutase™ cell detachment solution for 15 minutes. Flasks are incubated for 15 minutes in a humidified incubator at 37° C., 5% CO2. Detached cells are re-suspended in RPMI media (containing 10% (v/v) FBS and 2 mM L-glutamine) at 0.1×10^6 cells per mL. 10000 cells in 100 μL are added to each well of a tissue-culture-treated 96-well plate and the cells incubated overnight in a humidified incubator at 37° C., 5% CO2. The culture media is removed and cells are washed twice with 100 μL assay buffer and replaced with 50 μL assay buffer (HBSS solution containing 10 mM HEPES pH7.4 and 5 mM glucose). Cells are rested at room temperature for 20 minutes after which time 25 μL of rolipram (1.2 mM made up in assay buffer) is added. Cells are incubated with rolipram for 10 minutes after which time 25 μl test compounds are added and the cells are incubated for 60 minutes at room temperature. The final rolipram concentration in the assay is 300 μM and final vehicle concentration is 1% (v/v) dimethylsulphoxide. The reaction is stopped by removing supernatants, washing once with 100 μL assay buffer and replacing with 50 μL lysis buffer. The cell monolayer is frozen at −80° C. for 30 minutes (or overnight).
AlphaScreen™ cAMP Detection
The concentration of cAMP (cyclic adenosine monophosphate) in the cell lysate is determined using AlphaScreen™ methodology. The frozen cell plate is thawed for 20 minutes on a plate shaker then 10 μL of the cell lysate is transferred to a 96-well white plate. 40 μl of mixed AlphaScreen™ detection beads (containing equal volumes of donor beads (pre-incubated with biotinylated cAMP in the dark for 30 minutes) and acceptor beads is added to each well and the plate incubated at room temperature for 3 hours in the dark. The AlphaScreen™ signal is measured using an EnVision spectrophotometer (Perkin-Elmer Inc.) with the recommended manufacturer's settings. Concentration of cAMP produced per well were calculated with reference to the cAMP standard curve determined in the same experiment and expressed as a percentage of the maximum response generated by 1E-07M formoterol.

[2] = biological target: T2, human muscarinic acetylcholine M3 receptor (Homo sapiens, UniProt P20309); assay: Muscarinic 3 receptor binding assay ([3H]NMS competition, SPA), single concentration 1 μM; conditions: 1 μM compound; % inhibition specific [3H]-NMS binding
T2 construct: expressed in transfected cells; host or cells: CHO-K1 (Chinese Hamster Ovary) cell membranes
Method: The following experimental procedure was used to determine the M3% inhibition at 1 μM of the compounds of Examples 99-175
Muscarinic 3 Receptor Binding Assay
The activity (% inhibition specific binding) of compounds on the M3 receptor is determined by competition binding of [^3H]N-methyl scopolamine (NMS) to CHO-K1 (Chinese Hamster Ovary) cell membranes expressing the human muscarinic acetylcholine M3 receptor (M3-ACh) in a scintillation proximity assay (SPA) format. SPA beads are precoated with membranes and then incubated at 2 mg of beads per well with 1 μM compound of the invention, [^3H]NMS at 0.1 nM, quarter Kd (experimentally determined dissociation constant) and assay buffer (20 mM HEPES pH 7.4 containing 5 mM MgCl2 and 0.1% (w/v) bovine serum albumin). The assay is conducted in a final volume of 200 μL, in the presence of 1% (v/v) dimethyl sulphoxide (DMSO). Total binding of [^3H]NMS is determined in the absence of competing compound and non-specific binding of [^3H]NMS is determined in the presence of 1 μM atropine. The plates are incubated for 16 hours at room temperature and then read on Wallac Microbeta™ using a normalised ^3H protocol. The compound activity at 1 μM, defined as % inhibition specific [^3H]-NMS binding, is determined.

Adrenergic β2 [3] = biological target: T1, Adrenergic β2; assay: Adrenergic β2 mediated cAMP production in H292 cells (AlphaScreen), concentration response; assay type: cell-based; conditions: for EC50: 60 min, 300 μM rolipram, read-out: β2 pEC50 (converted); for β2 Intrinsic Activity: fraction relative to the maximum activity determined for formoterol
Summary of the method: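 H292 cells seeded overnight, pretreated 10 min with rolipram (300 μM final), then exposed to compounds 60 min at room temperature in HBSS/10 mM HEPES pH 7.4/5 mM glucose, 1% DMSO. Lysate cAMP quantified by AlphaScreen against a standard curve; four-parameter fit gives pEC50 and intrinsic activity relative to formoterol maximum.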

[4] = biological target: T2, human muscarinic acetylcholine M3 receptor; assay: Muscarinic 3 receptor binding assay ([3H]NMS competition, SPA), pIC50; conditions: [3H]NMS 0.1 nM, CHO-K1 cell membranes expressing human M3 receptor
Summary of the method: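 Competition of [3H]NMS (0.1 nM, quarter Kd) binding to CHO-K1 membranes expressing human M3, SPA format, in 20 mM HEPES pH 7.4, 5 mM MgCl2, 0.1% BSA, 1% DMSO. Incubated 16 h at room temperature; non-specific binding with 1 μM atropine; pIC50 from specific binding.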

T1 sequence (P07550 whole entry): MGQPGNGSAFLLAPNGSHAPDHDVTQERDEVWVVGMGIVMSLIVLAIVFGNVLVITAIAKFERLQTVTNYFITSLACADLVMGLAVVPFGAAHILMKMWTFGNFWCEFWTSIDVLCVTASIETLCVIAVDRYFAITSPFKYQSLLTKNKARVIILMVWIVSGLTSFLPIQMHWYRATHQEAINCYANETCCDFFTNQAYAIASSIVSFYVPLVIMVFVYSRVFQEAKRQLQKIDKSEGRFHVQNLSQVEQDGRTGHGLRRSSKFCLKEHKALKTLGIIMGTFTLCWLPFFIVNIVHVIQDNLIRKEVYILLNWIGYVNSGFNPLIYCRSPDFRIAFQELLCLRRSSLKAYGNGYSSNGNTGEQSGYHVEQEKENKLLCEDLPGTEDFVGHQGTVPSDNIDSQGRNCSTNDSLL
T2 sequence (P20309 whole entry): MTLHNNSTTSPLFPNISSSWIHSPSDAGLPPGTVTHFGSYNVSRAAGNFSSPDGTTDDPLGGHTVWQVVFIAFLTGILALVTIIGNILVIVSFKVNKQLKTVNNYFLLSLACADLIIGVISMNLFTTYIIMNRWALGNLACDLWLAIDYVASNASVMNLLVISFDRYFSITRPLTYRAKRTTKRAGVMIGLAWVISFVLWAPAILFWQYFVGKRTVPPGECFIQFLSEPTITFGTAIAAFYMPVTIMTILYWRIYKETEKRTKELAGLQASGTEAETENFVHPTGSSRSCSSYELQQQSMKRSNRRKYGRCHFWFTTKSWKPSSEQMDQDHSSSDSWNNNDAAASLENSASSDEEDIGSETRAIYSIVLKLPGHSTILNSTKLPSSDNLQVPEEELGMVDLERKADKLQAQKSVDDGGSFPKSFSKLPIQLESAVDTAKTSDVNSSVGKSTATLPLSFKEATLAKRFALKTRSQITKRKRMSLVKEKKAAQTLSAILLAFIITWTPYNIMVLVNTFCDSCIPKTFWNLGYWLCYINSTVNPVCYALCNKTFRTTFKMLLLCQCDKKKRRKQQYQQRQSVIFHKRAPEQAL

Row | percent of formoterol maximum response at 1 µM (Adrenergic β2 [1]) [%] | inhibition at 1 µM [2] [%] | EC50 (Adrenergic β2 [3]) [nM] | β2 Intrinsic Activity (Adrenergic β2 [3]) | IC50 [4] [nM] | Compound
1 | 94 | 98 |  |  |  | Cc1ccccc1C(=O)N1CCOC2(CCN(Cc3cccc(CCOCCC(=O)N(CCNCCc4ccc(O)c5c4OCC(=O)N5)C4CCCCC4)c3)CC2)C1 [Example 158, N-Cyclohexyl-N-(2-(2-(5-hydroxy-3-oxo-3,4-dihydro-2H-benzo[b][1,4]oxazin-8-yl)ethylamino)ethyl)-3-(3-((4-(2-methylbenzoyl)-1-oxa-4,9-diazaspiro[5.5]undecan-9-yl)methyl)phenethoxy)propanamide]
2 | 97 | 99 |  |  |  | O=C1COc2c(CCNCCN(C(=O)CCOCCc3cccc(CN4CCC5(CC4)CN(C(=O)c4[nH]nc6c4CCCC6)CCO5)c3)C3CCCCC3)ccc(O)c2N1 [Example 123, N-Cyclohexyl-N-(2-(2-(5-hydroxy-3-oxo-3,4-dihydro-2H-benzo[b][1,4]oxazin-8-yl)ethylamino)ethyl)-3-(3-((4-(4,5,6,7-tetrahydro-2H-indazole-3-carbonyl)-1-oxa-4,9-diazaspiro[5.5]undecan-9-yl)methyl)phenethoxy)propanamide]
3 | 82 | 95 |  |  |  | COCCOc1ccc(C(=O)N2CCOC3(CCN(Cc4cccc(CCOCCC(=O)N(CCNCCc5ccc(O)c6c5OCC(=O)N6)C5CCCCC5)c4)CC3)C2)cc1 [Example 173, N-Cyclohexyl-N-(2-(2-(5-hydroxy-3-oxo-3,4-dihydro-2H-benzo[b][1,4]oxazin-8-yl)ethylamino)ethyl)-3-(3-((4-(4-(2-methoxyethoxy)benzoyl)-1-oxa-4,9-diazaspiro[5.5]undecan-9-yl)methyl)phenethoxy)propanamide]
4 | 95 | 100 |  |  |  | O=C1COc2c(CCNCCN(C(=O)CCOCCc3cccc(CN4CCC5(CC4)CN(C(=O)c4ccc(F)cc4F)CCO5)c3)C3CCCCC3)ccc(O)c2N1 [Example 162, N-Cyclohexyl-3-(3-((4-(2,4-difluorobenzoyl)-1-oxa-4,9-diazaspiro[5.5]undecan-9-yl)methyl)phenethoxy)-N-(2-(2-(5-hydroxy-3-oxo-3,4-dihydro-2H-benzo[b][1,4]oxazin-8-yl)ethylamino)ethyl)propanamide]
5 | 101 | 100 |  |  |  | O=C1COc2c(CCNCCN(C(=O)CCOCCc3cccc(CN4CCC5(CC4)CN(C(=O)c4cc6cc(F)ccc6[nH]4)CCO5)c3)C3CCCCC3)ccc(O)c2N1 [Example 107, N-Cyclohexyl-3-(3-((4-(5-fluoro-1H-indole-2-carbonyl)-1-oxa-4,9-diazaspiro[5.5]undecan-9-yl)methyl)phenethoxy)-N-(2-(2-(5-hydroxy-3-oxo-3,4-dihydro-2H-benzo[b][1,4]oxazin-8-yl)ethylamino)ethyl)propanamide]
6 | 89 | 97 |  |  |  | O=C1COc2c(CCNCCN(C(=O)CCOCCc3cccc(CN4CCC5(CC4)CN(C(=O)[C@@H](O)Cc4ccccc4)CCO5)c3)C3CCCCC3)ccc(O)c2N1 [Example 134, (S)-N-Cyclohexyl-N-(2-(2-(5-hydroxy-3-oxo-3,4-dihydro-2H-benzo[b][1,4]oxazin-8-yl)ethylamino)ethyl)-3-(3-((4-(2-hydroxy-3-phenylpropanoyl)-1-oxa-4,9-diazaspiro[5.5]undecan-9-yl)methyl)phenethoxy)propanamide]
7 | 93 | 99 |  |  |  | CC(C)(C)C(=O)N1CCOC2(CCN(Cc3cccc(CCOCCC(=O)N(CCNCCc4ccc(O)c5c4OCC(=O)N5)C4CCCCC4)c3)CC2)C1 [Example 155, N-Cyclohexyl-N-(2-(2-(5-hydroxy-3-oxo-3,4-dihydro-2H-benzo[b][1,4]oxazin-8-yl)ethylamino)ethyl)-3-(3-((4-pivaloyl-1-oxa-4,9-diazaspiro[5.5]undecan-9-yl)methyl)phenethoxy)propanamide]
8 | 102 | 101 |  |  |  | O=C1COc2c(CCNCCN(C(=O)CCOCCc3cccc(CN4CCC5(CC4)CN(C(=O)Cc4ccccc4F)CCO5)c3)C3CCCCC3)ccc(O)c2N1 [Example 169, N-Cyclohexyl-3-(3-((4-(2-(2-fluorophenyl)acetyl)-1-oxa-4,9-diazaspiro[5.5]undecan-9-yl)methyl)phenethoxy)-N-(2-(2-(5-hydroxy-3-oxo-3,4-dihydro-2H-benzo[b][1,4]oxazin-8-yl)ethylamino)ethyl)propanamide]
9 |  |  | 10 | 1.0 | 1 | CCCCN(CCNCCc1ccc(O)c2c1OCC(=O)N2)C(=O)CCOCCc1cccc(CCN2CCC3(CC2)CN(C(=O)c2csc(C(C)C)n2)CCO3)c1 [Example 34, N-Butyl-N-(2-(2-(5-hydroxy-3-oxo-3,4-dihydro-2H-benzo[b][1,4]oxazin-8-yl)ethylamino)ethyl)-3-(3-(2-(4-(2-isopropylthiazole-4-carbonyl)-1-oxa-4,9-diazaspiro[5.5]undecan-9-yl)ethyl)phenethoxy)propanamide ditrifluoroacetate]
10 |  |  | 501 | 1.0 | 1.26 | O=C1COc2c(CCNCCN(C(=O)CCOCCc3cccc(CN4CCC5(CC4)CN(C(=O)c4csc(-c6ccccc6)n4)CCO5)c3)C3CCCCC3)ccc(O)c2N1 [Example 82, N-Cyclohexyl-N-(2-(2-(5-hydroxy-3-oxo-3,4-dihydro-2H-benzo[b][1,4]oxazin-8-yl)ethylamino)ethyl)-3-(3-((4-(2-phenylthiazole-4-carbonyl)-1-oxa-4,9-diazaspiro[5.5]undecan-9-yl)methyl)phenethoxy)propanamide]
11 |  |  | 63.1 | 0.5 | 0.631 | CCCCN(CCCNCCc1ccc(O)c2c1OCC(=O)N2)C(=O)CCOCCc1cccc(CN2CCC3(CC2)CN(C(=O)c2csc(CC)n2)CCO3)c1Cl [Example 80]
12 |  |  | 20 | 1.0 | 0.398 | CCc1nc(C(=O)N2CCOC3(CCN(Cc4cccc(CCOCCC(=O)N(CCNCCc5ccc(O)c6c5OCC(=O)N6)[C@H](C)CC)c4Cl)CC3)C2)cs1 [Example 31, (R)—N-sec-Butyl-3-(2-chloro-3-((4-(2-ethylthiazole-4-carbonyl)-1-oxa-4,9-diazaspiro[5.5]undecan-9-yl)methyl)phenethoxy)-N-(2-(2-(5-hydroxy-3-oxo-3,4-dihydro-2H-benzo[b][1,4]oxazin-8-yl)ethylamino)ethyl)propanamide ditrifluoroacetate]
